Experimental data from ChEMBL document CHEMBL1201862, “PubChem BioAssay data set” (2004).
One block for each compound: values may come before it. Activity calls are given as the source filed them.

Columns and labels:
[1] = target: T1, Heat shock factor protein 1 (Mus musculus, UniProt P38532); assay: inhibition of MG132-induced HSE-luciferase signal, confirmation, cell-based, NIH3T3, luminescence, dose retest (AID 2382); type: functional;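 further: NIH3T3 fibroblasts with HSF1-driven luciferase reporter stressed by proteasome inhibitor MG132; luminescence from HSF1-driven luciferase expression after 8 hours of MG132 stress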
T1 sequence (P38532 whole entry): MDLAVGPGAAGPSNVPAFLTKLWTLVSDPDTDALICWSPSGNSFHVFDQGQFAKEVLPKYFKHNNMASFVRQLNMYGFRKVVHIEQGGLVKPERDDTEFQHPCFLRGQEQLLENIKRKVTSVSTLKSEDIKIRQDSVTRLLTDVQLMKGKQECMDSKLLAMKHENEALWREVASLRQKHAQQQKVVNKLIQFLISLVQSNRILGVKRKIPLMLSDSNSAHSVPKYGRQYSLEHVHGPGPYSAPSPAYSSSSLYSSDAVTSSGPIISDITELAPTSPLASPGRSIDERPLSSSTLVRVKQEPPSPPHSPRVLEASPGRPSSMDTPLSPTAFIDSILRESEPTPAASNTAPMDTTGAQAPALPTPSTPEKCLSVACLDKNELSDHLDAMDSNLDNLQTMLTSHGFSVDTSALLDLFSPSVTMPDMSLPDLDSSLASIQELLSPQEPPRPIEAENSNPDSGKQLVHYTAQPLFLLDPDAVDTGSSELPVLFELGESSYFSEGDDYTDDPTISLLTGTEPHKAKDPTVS

[2] = target: Alkaline phosphatase, placental type (Homo sapiens, UniProt P05187); assay: PLAP enzyme inhibitors, confirmation, biochemical, luminescence (AID 1512); type: functional
Chain of Alkaline phosphatase, placental type (P05187 whole entry): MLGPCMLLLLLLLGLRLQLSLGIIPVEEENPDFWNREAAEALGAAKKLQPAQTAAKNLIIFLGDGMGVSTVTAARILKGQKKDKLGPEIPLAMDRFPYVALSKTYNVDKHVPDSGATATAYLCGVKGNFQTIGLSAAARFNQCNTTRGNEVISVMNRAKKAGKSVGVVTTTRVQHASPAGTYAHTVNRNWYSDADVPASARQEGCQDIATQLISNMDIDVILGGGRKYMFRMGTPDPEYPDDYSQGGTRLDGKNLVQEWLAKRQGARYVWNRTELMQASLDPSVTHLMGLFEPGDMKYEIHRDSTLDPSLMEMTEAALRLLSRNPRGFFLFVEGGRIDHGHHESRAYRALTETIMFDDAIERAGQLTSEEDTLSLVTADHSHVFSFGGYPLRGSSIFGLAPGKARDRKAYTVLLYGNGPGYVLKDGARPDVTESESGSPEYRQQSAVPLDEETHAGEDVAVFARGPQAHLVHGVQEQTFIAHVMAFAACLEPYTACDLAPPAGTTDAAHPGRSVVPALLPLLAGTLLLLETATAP

[3] = target: T2, Alkaline phosphatase, tissue-nonspecific isozyme (Homo sapiens, UniProt P05186); assay: human TNAP enzyme inhibitors, SAR follow-up, biochemical, luminescent, dose response (AID 1056)
T2 sequence (P05186 whole entry): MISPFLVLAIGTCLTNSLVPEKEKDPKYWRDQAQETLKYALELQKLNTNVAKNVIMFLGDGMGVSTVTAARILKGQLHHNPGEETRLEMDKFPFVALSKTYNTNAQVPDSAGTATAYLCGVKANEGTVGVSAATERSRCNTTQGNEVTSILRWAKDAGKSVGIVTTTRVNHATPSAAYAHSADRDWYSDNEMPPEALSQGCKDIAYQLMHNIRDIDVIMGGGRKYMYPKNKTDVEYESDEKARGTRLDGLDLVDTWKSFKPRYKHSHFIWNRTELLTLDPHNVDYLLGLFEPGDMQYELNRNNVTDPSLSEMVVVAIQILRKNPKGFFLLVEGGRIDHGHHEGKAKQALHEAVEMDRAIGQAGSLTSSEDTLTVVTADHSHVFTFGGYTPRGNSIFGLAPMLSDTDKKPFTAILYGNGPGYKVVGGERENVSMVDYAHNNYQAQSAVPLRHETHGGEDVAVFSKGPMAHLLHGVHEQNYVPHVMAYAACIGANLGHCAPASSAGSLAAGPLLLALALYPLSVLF

[4] = target: T3, Microphthalmia-associated transcription factor (Homo sapiens, UniProt O75030); assay: TRPM1 promoter luciferase signal decrease, dose response, MITF inhibitor project, cell-based, SK-MEL-5, cherry-picked, set 3 (AID 493073); type: functional
T3 sequence (O75030 whole entry): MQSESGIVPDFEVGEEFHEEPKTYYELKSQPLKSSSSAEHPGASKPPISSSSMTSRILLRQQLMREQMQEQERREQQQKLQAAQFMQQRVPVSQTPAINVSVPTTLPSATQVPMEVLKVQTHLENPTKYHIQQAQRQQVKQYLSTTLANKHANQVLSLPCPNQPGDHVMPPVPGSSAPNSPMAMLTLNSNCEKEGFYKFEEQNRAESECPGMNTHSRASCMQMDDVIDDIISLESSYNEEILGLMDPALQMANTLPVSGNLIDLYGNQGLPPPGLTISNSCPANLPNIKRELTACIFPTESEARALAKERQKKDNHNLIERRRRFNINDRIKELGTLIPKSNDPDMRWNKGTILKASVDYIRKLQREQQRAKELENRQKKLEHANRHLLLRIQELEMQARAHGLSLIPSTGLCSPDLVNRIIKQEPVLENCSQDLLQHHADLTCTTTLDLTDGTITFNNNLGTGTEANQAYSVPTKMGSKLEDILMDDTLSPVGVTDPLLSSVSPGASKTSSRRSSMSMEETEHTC

[5] = target: T4, Rac GTPase-activating protein 1 (Homo sapiens, UniProt Q9H0H5); assay: MgcRacGAP GTPase-activating activity inhibitors, confirmation, biochemical, ADP Hunter fluorescence, primary and confirmatory (AID 624330); type: functional
T4 sequence (Q9H0H5 whole entry): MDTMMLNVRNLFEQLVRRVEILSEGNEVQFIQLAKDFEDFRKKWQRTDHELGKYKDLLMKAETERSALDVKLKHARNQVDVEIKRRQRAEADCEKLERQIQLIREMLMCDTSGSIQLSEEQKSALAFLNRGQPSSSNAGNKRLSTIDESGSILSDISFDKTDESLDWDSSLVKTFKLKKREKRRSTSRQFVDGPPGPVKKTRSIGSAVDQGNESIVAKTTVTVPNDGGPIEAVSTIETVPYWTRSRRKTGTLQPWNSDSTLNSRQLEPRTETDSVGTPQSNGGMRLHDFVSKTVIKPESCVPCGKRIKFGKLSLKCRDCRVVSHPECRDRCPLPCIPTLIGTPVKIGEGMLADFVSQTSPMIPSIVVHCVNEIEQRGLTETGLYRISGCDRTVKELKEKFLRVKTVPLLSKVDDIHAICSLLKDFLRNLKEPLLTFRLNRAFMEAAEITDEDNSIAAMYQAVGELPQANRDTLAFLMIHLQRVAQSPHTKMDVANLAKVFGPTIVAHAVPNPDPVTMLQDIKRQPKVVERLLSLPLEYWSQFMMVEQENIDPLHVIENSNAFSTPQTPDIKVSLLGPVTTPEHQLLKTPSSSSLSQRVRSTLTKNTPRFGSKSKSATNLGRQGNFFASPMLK

[6] = target: T5, Tyrosine-protein phosphatase non-receptor type 7 (Homo sapiens, UniProt P35236); assay: SAR analysis of chemical inhibitors of HePTP using a Fluorescent assay - Set 2. [Related pubchem assays (depositor defined):AID1059, AID1077, AID1661, AID2085, AID521]; type: functional
T5 sequence (P35236 whole entry): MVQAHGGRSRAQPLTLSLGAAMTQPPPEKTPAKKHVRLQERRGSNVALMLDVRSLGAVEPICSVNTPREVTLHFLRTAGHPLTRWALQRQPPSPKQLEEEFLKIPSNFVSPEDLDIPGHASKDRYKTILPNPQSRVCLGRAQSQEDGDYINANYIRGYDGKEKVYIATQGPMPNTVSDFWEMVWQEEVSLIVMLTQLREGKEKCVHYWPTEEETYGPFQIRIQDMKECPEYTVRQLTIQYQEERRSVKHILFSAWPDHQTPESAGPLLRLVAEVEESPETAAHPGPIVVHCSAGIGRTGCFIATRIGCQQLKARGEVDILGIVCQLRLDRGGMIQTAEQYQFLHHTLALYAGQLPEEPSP

[7] = target: Dual specificity protein phosphatase 3 (Homo sapiens, UniProt P51452); assay: SAR VHR1 Fluorescent Assay for In Vitro dose response studies Set 2. [Related pubchem assays (depositor defined):AID1654, AID1661, AID1878]; type: functional
Chain of Dual specificity protein phosphatase 3 (P51452 whole entry): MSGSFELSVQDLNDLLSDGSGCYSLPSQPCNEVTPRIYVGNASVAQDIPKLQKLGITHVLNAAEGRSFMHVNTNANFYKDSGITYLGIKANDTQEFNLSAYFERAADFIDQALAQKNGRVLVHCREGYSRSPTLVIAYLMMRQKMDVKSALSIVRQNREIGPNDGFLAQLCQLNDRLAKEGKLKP

[8] = target: T6, Bcl-2-related protein A1 (Mus musculus, UniProt Q07440); type: functional;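 further: confirmatory dose–response counterscreen on Bfl-1, used to check hits from a UBC13 polyubiquitin inhibitor campaign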
T6 sequence (Q07440 whole entry): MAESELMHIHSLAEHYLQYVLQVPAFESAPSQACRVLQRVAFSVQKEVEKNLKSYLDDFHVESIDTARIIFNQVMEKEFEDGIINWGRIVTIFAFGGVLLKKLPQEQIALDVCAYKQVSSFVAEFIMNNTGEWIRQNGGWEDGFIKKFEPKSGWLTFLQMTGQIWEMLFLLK

[9] = target: T7, Ubiquitin-conjugating enzyme E2 N (Homo sapiens, UniProt P61088); type: functional
T7 sequence (P61088 whole entry): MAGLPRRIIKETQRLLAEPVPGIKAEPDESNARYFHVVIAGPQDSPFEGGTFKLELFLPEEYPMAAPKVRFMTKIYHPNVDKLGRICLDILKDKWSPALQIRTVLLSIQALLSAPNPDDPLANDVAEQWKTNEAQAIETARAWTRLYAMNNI

[10] = target: T7, Ubiquitin-conjugating enzyme E2 N; type: functional; remark: listed apart in the source
[11] = target: E3 ubiquitin-protein ligase XIAP (Homo sapiens, UniProt P98170); assay: Counter Screen using XIAP-Bir3 for Chemical Antagonists of Bir1/2 domains of IAP-family anti-apoptotic proteins. [Related pubchem assays (depositor defined):AID1018, AID1449, AID1514, AID1638, AID1749, AID1750, AID488957, AID488963]
Chain of E3 ubiquitin-protein ligase XIAP (P98170 whole entry): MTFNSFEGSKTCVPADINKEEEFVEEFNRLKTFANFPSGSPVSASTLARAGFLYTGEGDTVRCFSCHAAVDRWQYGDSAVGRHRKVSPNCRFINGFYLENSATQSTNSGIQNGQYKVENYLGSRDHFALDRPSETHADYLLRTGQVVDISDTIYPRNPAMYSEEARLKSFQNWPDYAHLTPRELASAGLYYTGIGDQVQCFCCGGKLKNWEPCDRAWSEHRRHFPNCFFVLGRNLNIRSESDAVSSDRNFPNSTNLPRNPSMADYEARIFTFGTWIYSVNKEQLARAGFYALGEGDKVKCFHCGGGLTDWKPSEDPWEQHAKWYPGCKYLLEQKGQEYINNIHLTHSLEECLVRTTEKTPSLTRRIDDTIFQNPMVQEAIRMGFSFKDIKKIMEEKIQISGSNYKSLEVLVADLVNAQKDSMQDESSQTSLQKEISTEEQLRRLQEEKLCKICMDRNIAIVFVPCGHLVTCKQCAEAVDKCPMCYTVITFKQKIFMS

[12] = Luminescence Cell-Based Dose Retest to Confirm Inhibitors of Cancer Stem Cells. [Related pubchem assays (depositor defined):AID2717, AID2721]; type: functional; conditions: Homo sapiens
[13] = target: Eukaryotic translation initiation factor 4E (Mus musculus, UniProt P63073); assay: eIF4E–eIF4G protein interaction inhibitors, dose response, biochemical, TR-FRET (AID 855); type: functional;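 further: potency for disrupting eIF4E binding to eIF4GI seen as loss of FRET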
Chain of Eukaryotic translation initiation factor 4E (P63073 whole entry): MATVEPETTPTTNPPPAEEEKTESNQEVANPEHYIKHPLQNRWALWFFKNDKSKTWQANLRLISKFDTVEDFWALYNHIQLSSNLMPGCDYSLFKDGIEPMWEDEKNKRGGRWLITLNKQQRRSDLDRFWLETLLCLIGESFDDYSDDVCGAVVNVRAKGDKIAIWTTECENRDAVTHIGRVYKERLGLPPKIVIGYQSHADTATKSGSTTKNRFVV

- EC50 [1]: 4.26 µM (active)
- IC50 [2]: > 100 µM (inactive)
- IC50 [3]: > 100 µM (inactive)
- AC50 [4]: 11.2 µM (active)
- IC50 [5]: 31.5 µM (active)
Structure (SMILES): Nc1ccc2c(c1)OC1(CCCC1)O2

Structure (SMILES): Oc1ccc(CCNC(=S)Nc2ccc(Cl)cc2Cl)cc1O
- IC50 [6]: 18.8 µM (active)
- IC50 [7]: 30.5 µM (active)

- IC50 [8]: > 20 µM (inactive)
- IC50 [9]: 12.3 µM (active)
- IC50 [10]: > 20 µM (inactive)
Structure (SMILES): CSCCC(NC(=O)COc1ccccc1)C(=O)N1CCC(C(N)=O)CC1 (stereo not given)

Structure (SMILES): CCCOc1ccc(C(=S)NCc2ccc(F)c(C(F)(F)F)c2)cc1
- IC50 [6]: 39.2 µM (active)
- IC50 [7]: 71.7 µM (active)

Structure (SMILES): CC(=O)Nc1ccc(/N=C/c2c(O)c(C(=O)Nc3ccccc3)cc3ccccc23)cc1
- IC50 [11]: > 20 µM (inactive)
- AC50 [12]: 1.01 µM (active)
- IC50 [13]: 50 µM (inactive)
